ChEMBL document CHEMBL1201862, “PubChem BioAssay data set” (2004)
Active and inactive are the calls of the source.

Legend:
Insulin-degrading enzyme [1] = molecular target: T1, Insulin-degrading enzyme (Homo sapiens, UniProt P14735); test: recombinant IDE activation, cell-free – biochemical, fluorescence polarization, counter-screen for IDE activator project, dose response (AID 588681)
T1 sequence (P14735 whole entry): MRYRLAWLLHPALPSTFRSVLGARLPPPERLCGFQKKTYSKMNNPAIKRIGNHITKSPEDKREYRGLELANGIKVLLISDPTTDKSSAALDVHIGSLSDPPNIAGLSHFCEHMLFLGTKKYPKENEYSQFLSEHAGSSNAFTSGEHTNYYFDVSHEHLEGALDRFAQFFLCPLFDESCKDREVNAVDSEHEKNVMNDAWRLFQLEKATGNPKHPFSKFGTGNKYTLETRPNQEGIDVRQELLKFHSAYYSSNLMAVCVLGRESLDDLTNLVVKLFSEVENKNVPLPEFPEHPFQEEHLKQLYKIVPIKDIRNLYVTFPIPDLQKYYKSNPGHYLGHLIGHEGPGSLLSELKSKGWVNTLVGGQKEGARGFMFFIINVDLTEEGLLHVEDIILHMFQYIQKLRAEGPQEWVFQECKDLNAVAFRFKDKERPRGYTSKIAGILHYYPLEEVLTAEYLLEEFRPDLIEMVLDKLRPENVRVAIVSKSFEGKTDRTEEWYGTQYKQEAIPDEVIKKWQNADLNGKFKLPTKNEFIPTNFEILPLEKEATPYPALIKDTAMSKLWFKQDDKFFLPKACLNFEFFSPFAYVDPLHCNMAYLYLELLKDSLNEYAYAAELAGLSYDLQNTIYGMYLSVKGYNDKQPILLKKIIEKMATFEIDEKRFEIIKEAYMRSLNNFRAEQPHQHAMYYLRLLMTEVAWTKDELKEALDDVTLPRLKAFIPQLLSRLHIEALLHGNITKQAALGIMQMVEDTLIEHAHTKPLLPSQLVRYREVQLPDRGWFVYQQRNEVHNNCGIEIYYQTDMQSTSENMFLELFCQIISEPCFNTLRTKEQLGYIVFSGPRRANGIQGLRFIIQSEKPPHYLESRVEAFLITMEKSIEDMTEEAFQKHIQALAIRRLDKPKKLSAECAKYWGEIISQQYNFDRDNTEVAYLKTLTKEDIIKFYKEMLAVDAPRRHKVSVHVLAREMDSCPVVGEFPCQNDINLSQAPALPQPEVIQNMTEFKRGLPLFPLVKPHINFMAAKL

Insulin-degrading enzyme [2] = molecular target: T1, Insulin-degrading enzyme; test: cellular IDE activation of Abeta substrate cleavage – fluorescence polarization, HEK cells, dose response (AID 588439); format: functional, cell-based
HEK293 [3] = test: membrane integrity loss in HEK cells – cell-based, fluorescence, cytotoxicity control for IDE activator project, dose response (AID 588440); format: functional; details: Homo sapiens;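 note: cytotoxicity by LDH release measuring loss of membrane integrity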
HEK293 [4] = test: optical interference in Abeta FP readout, dose response, artefact control for IDE activator project, biochemical, fluorescence polarization (AID 588442); format: functional, cell-based; details: Homo sapiens
[5] = molecular target: T2, High affinity choline transporter 1 (Homo sapiens, UniProt Q9GZV3); test: human choline transporter blockers, potency – cell-based, 5-point CRC, membrane potential dye, dose response (AID 504840); format: functional
T2 sequence (Q9GZV3 whole entry): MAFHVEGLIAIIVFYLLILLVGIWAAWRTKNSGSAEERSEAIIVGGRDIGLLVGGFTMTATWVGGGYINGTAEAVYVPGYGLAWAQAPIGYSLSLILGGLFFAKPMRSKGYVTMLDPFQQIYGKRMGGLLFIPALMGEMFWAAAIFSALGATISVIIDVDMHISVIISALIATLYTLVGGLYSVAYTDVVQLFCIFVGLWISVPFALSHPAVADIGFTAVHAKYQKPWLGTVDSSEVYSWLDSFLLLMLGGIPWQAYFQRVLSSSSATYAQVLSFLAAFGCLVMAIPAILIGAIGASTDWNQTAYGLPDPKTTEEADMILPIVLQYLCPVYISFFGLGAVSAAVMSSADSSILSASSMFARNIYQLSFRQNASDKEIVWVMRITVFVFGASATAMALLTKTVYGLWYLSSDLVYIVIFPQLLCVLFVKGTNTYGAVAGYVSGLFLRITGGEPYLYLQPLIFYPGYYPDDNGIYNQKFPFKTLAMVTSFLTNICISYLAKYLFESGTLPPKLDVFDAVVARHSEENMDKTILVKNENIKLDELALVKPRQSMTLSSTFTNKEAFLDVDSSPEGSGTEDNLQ

[6] = molecular target: T2, High affinity choline transporter 1; test: human choline transporter blockers, potency – cell-based, 10-point CRC, membrane potential dye, dose response (AID 588401); format: functional;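 note: membrane potential dye fluorescence of choline-evoked depolarization via CHT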
[7] = molecular target: Protein disulfide-isomerase (Homo sapiens, UniProt P07237); test: inhibition of PDI-driven insulin aggregation – biochemical, turbidity, absorbance, cherry-picked samples, dose response (AID 602350); format: functional
Protein disulfide-isomerase, sequence (P07237 whole entry): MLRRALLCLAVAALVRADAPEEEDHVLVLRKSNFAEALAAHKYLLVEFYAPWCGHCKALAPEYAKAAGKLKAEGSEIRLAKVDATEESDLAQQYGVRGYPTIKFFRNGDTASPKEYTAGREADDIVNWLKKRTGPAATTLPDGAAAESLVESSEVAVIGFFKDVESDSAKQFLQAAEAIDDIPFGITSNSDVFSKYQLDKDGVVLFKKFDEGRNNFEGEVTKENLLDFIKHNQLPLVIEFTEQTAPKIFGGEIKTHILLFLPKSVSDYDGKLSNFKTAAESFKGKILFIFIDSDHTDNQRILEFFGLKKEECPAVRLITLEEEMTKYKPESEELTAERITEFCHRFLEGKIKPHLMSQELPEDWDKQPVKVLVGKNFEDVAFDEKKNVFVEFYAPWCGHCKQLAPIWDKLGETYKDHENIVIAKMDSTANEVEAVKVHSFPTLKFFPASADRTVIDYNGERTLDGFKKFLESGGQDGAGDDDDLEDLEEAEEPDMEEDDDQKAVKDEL

Structure (SMILES)	EC50 (Insulin-degrading enzyme [1])	EC50 (Insulin-degrading enzyme [2])	IC50 (HEK293 [3])	EC50 (HEK293 [4])	IC50 [5]	IC50 [6]	AC50 [7]
O=C(CN1C(=O)COc2ccc(S(=O)(=O)N3CCCC3)cc21)NCc1ccccn1	> 54.7 µM (inactive)	> 54.7 µM (inactive)	> 89.2 µM (inactive)	> 54.7 µM (inactive)			
CC(C)(O)C#Cc1ccccc1C(=O)NC(CC(N)=O)C(=O)O (stereo unspecified)	> 54.7 µM (inactive)	> 54.7 µM (inactive)	> 89.2 µM (inactive)	> 55.9 µM (inactive)			
CCCCN(CCCC)CCNC(=O)c1cn(CC)c2ccc(S(=O)(=O)N3CCc4ccccc4C3)cc2c1=O					4.07 µM (active)	4.28 µM (active)	
O=C(NC(Cc1ccc(O)cc1)C(=O)N=Nc1c(O)[nH]c2ccccc12)c1ccccc1 (stereo unspecified)							19.5 µM (active)
